{
  "source": "patent US9272056B2",
  "about": "“Method to produce hyperpolarised carboxylates” (GE Healthcare AS, priority 2005, dated 2016)",
  "assay": "T1 relaxation in human full blood",
  "assay_type": "physicochemical",
  "details": "human full blood at 37° C.",
  "description": "The amount of alanine, bicarbonate and lactate is dependent on the metabolic status of the tissue under investigation.",
  "data": [
    {"smiles": "CC(=O)[13C](=O)O", "note": "[^13C-pyruvate]", "values": [
      {"measurement": "T1 relaxation", "result": "about 42 s"}
    ]}
  ]
}
